Test results: patent US9023408B2, “Composition and method for control of diabetes” (Meyer Nutriceuticals LLC, priority 2009, dated 2015)

Assays:
[1] = U.S.P. in vitro dissolution test (rotating basket); conditions: uncoated cores of CTM #3
[2] = human, in vivo
Experimental: An additional gram of pellets was added to the dose; and the additional pellets had been surface-labeled with 99m-Tc-polymethylmethacrylate (these additional pellets could not release their contents), so that the positions of the pellets with time could be followed with a gamma camera. The releasing pellets also contained 5% (w/w) APAP which is rapidly and completely absorbed from small or large bowel, even in the presence of food. The APAP served as a pharmacokinetic marker. Subjects ate a free-choice meal at 241 min. Finally, PYY levels (see FIG. 4b) were followed on CTM and also on control days when four of the eight subjects shown in FIG. 4a consumed the standard breakfast at t=0 and a free choice lunch at t=241 min, but no pellets of CTM #3. Because lauric acid released from CTM #3 cannot be distinguished in plasma from dietary and endogenous lauric acid, assays of plasma PYY served as a surrogate for the release of bioactive lauric acid, which is known to be a potent stimulus of secretion of PYY and GLP-1 from L cells. To compare the time-courses of basal subtracted PYY measurements with those of APAP, analytical values for APAP were scaled up so that they equaled the peak PYY at 300 min.
From 240-300 minutes, the pellets began to empty from the ileum, so that by 300 min, there were few pellets in the small bowel, and the majority of pellets was now in the colon. […]

GLP-1 = assay: Placebo-controlled double-blinded study in type 2 diabetes: plasma GLP-1; parameters: species or system human; conditions: in vivo
Experimental: FIGS. 6 and 7 depict the effect of CTM #3 versus placebo on blood glucose in a randomized, placebo-controlled, double-blinded study in 10 subjects with mild to moderate type 2 diabetes. After an overnight fast, subjects ingested 10 g of placebo pellets or CTM #3 pellets with the same standard breakfast as above (415 kcal; 71 g of carbohydrate) followed by a standard lunch at 240 min (708 kcal; 89 g of carbohydrate). […] The higher calorie lunch raised GLP-1s more than the breakfast on placebo days; and the CTM raised the post lunch GLP-1s even more. […] Using a similar calculation as used above for PYY, the per-calorie effectiveness of the lauric acid in CTM #3 in boosting the GLP-1 response to the meal was 77 times that of the calories in the breakfast.
For comparisons, the APAP levels have been scaled up so that their value equaled that of the GLP-1 peak at 270 min. […] The diabetic subjects were older than the normal subjects, and four of them had mild vagal neuropathy which might have contributed to slower gastric emptying. […]
The GLP-1 values (vertical axis) following the CTM treatment are expressed as a percent of the corresponding value at each time point following the placebo treatment, so that any value above the horizontal 100% line represents the effect of lauric acid released from the CTM #3. […]

For `CCCCCCCCCCCC(=O)O` [lauric acid], the “solubility in simulated bile (bile salts and lecithin) at pH 6.2” value ([1]; pH 6.2) was “only half as soluble as maltose”, the “solubility compared with maltose, bile-free medium” value ([1]; pH 6.2 1 h then pH 7.2 3 h) was “much less soluble than maltose” and the “solubility in simulated bile (bile salts and lecithin) at pH 7.2” value ([1]; pH 7.2) was “as soluble as maltose or APAP”. For the same compound, the “duration of slow release from the dosage form after ingestion” value [2] was 330 to 360 min and the “per calorie potency relative to dietary nutrients in releasing GLP-1 and PYY” value (GLP-1) was 77-150 times.
